For data set [1], the system named is MCF7. As to the kind of experiment: Cytotoxicity against human MCF7 cells. It is filed as functional, cell-based.
Data set [2] can be described thus: Cytotoxicity against human MCF-10A cells. It is filed as toxicity, cell-based.
The nature of data set [3]: Cytotoxicity against mouse EMT6/AR1 cells. It is filed as functional, cell-based.
Data set [4] relates to A549. As to the kind of experiment: Cytotoxicity against human A549 cells. The class given is functional, cell-based.
Data set [5] can be described thus: Cytotoxicity against mouse L929 cells. It is filed as toxicity, cell-based.
For data set [6], the system named is B16-F10. As to the kind of experiment: Cytotoxicity against mouse B16-F10 cells. The class given is functional, cell-based.
Data set [7] relates to HeLa. As to the kind of experiment: Cytotoxicity against human HeLa cells. It is filed as functional, cell-based.
Data set [8] relates to MCF7. As to the kind of experiment: Cytotoxicity against human MCF7 cells after 24 hrs by MTT assay. The note with it: MCF7, 24 h. It is filed as functional, cell-based.
The subject of data set [9] is HCT-116. As to the kind of experiment: Cytotoxicity against human HCT-116 cells after 24 hrs by MTT assay. It is filed as functional, cell-based. The note with it: HCT-116, 24 h.
The subject of data set [10] is HepG2. Briefly: Cytotoxicity against human HepG2 cells after 24 hrs by MTT assay. It is filed as functional, cell-based. The note with it: HepG2, 24 h. (In general: Formazan colour is commonly taken as a measure of viable cells.)
A short description of data set [11]: Cytotoxicity against human MCF-10A cells measured after 24 hrs by MTT assay. It is filed as toxicity, cell-based.
Data set [12] has as its system HL-60. Briefly: Antiproliferative activity against human HL-60 cells assessed as reduction in cell viability incubated for 72 hrs by MTT assay. It is filed as functional, cell-based. The note with it: HL-60, 72 h.
Data set [13] has as its system RS4-11. As to the kind of experiment: Antiproliferative activity against human RS4-11 cells assessed as reduction in cell viability incubated for 72 hrs by MTT assay. The following applies: RS4-11, 72 h. It is filed as functional, cell-based.
Data set [14] has as its system MCF7. As to the kind of experiment: Antiproliferative activity against human MCF7 cells assessed as reduction in cell viability incubated for 72 hrs by MTT assay. It is filed as functional, cell-based. The following applies: MCF7, 72 h.
For data set [15], the system named is A549. Briefly: Antiproliferative activity against human A549 cells assessed as reduction in cell viability incubated for 72 hrs by MTT assay. The following applies: A549, 72 h. It is filed as functional, cell-based.
The subject of data set [16] is HeLa. As to the kind of experiment: Antiproliferative activity against human HeLa cells assessed as reduction in cell viability incubated for 72 hrs by MTT assay. It is filed as functional, cell-based.
In data set [17] the target is Tubulin. Briefly: Inhibition of tubulin polymerization (unknown origin). It is filed as protein-complex assay, Homo sapiens.
Data set [18] has as its system HT-29. Briefly: Antiproliferative activity against human HT-29 cells assessed as reduction in cell viability incubated for 72 hrs by MTT assay. The class given is functional, cell-based. The following applies: HT-29, 72 h.
In data set [19] the test system is Jurkat. Briefly: Antiproliferative activity against human Jurkat cells assessed as reduction in cell viability incubated for 72 hrs by MTT assay. The class given is functional, cell-based.
For data set [20], the system named is HFF. As to the kind of experiment: Anticancer activity against human HFF cells assessed as reduction in cell viability at 50 ug/ml measured for 48 hrs by MTT assay relative to control. The class given is functional. The note with it: dose 50 µg/ml.
The subject of data set [21] is HCT-116. As to the kind of experiment: Anticancer activity against human HCT-116 cells assessed as reduction in cell viability at 50 ug/ml measured for 48 hrs by MTT assay relative to control. The following applies: dose 50 µg/ml. The class given is functional.
Data set [22] concerns MCF7. Briefly: Anticancer activity against human MCF7 cells assessed as reduction in cell viability at 50 ug/ml measured for 24 hrs by MTT assay relative to control. It is filed as functional. The note with it: dose 50 µg/ml.
The test system of data set [23] is MCF7. As to the kind of experiment: Anticancer activity against human MCF7 cells assessed as reduction in cell viability at 10 ug/ml measured for 24 hrs by MTT assay relative to control. The class given is functional. The following applies: dose 10 µg/ml.
The subject of data set [24] is HFF. As to the kind of experiment: Anticancer activity against human HFF cells assessed as reduction in cell viability at 50 ug/ml measured for 24 hrs by MTT assay relative to control. The note with it: dose 50 µg/ml. It is filed as functional.
The subject of data set [25] is HCT-116. As to the kind of experiment: Anticancer activity against human HCT-116 cells assessed as reduction in cell viability at 50 ug/ml measured for 24 hrs by MTT assay relative to control. It is filed as functional. The following applies: dose 50 µg/ml.
For data set [26], the system named is MCF7. Briefly: Anticancer activity against human MCF7 cells assessed as reduction in cell viability at 50 ug/ml measured for 48 hrs by MTT assay relative to control. It is filed as functional. The note with it: dose 50 µg/ml.
Data set [27] has as its system HCT-116. Briefly: Anticancer activity against human HCT-116 cells assessed as reduction in cell viability at 10 ug/ml measured for 24 hrs by MTT assay relative to control. It is filed as functional. The note with it: dose 10 µg/ml.
For data set [28], the system named is MCF7. As to the kind of experiment: Anticancer activity against human MCF7 cells assessed as reduction in cell viability at 10 ug/ml measured for 48 hrs by MTT assay relative to control. It is filed as functional. The note with it: dose 10 µg/ml.
In data set [29] the test system is HFF. Briefly: Anticancer activity against human HFF cells assessed as reduction in cell viability at 10 ug/ml measured for 48 hrs by MTT assay relative to control. The class given is functional. The note with it: dose 10 µg/ml.
Data set [30] relates to HCT-116. Briefly: Anticancer activity against human HCT-116 cells assessed as reduction in cell viability at 10 ug/ml measured for 48 hrs by MTT assay relative to control. The following applies: dose 10 µg/ml. The class given is functional.
Data set [31] relates to HFF. As to the kind of experiment: Anticancer activity against human HFF cells assessed as reduction in cell viability at 10 ug/ml measured for 24 hrs by MTT assay relative to control. It is filed as functional. The note with it: dose 10 µg/ml.
The subject of data set [32] is HepG2. Briefly: Antiproliferative activity against human HepG2 cells. The class given is functional, cell-based.
The test system of data set [33] is RKO. Briefly: Anticancer activity against human RKO cells. It is filed as functional, cell-based.
Data set [34] concerns HCT-116. Briefly: Anticancer activity against human HCT-116 cells. It is filed as functional, cell-based.
Data set [35] deals with DLD-1. Briefly: Anticancer activity against human DLD-1 cells. The class given is functional, cell-based.
Data set [36] can be described thus: Inhibition of TK (unknown origin). Further details: species or system Homo sapiens.
For data set [37], the system named is SNU-C1. Briefly: Anticancer activity against human SNU-C1 cells. It is filed as functional, cell-based.
Data set [38] relates to HT-29. As to the kind of experiment: Anticancer activity against human HT-29 cells. It is filed as functional, cell-based.
The test system of data set [39] is SW480. Briefly: Anticancer activity against human SW480 cells. The class given is functional, cell-based.
The subject of data set [40] is COLO 320. As to the kind of experiment: Anticancer activity against human COLO 320 cells. It is filed as functional, cell-based.
Data set [41] concerns SW837. As to the kind of experiment: Anticancer activity against human SW837 cells. The class given is functional, cell-based.
A short description of data set [42]: Antiproliferative activity against human BJ cells. It is filed as toxicity, cell-based.
Data set [43] relates to A549. As to the kind of experiment: Antiproliferative activity against human A549 cells. It is filed as functional, cell-based.
For data set [44], the system named is SiHa. Briefly: Antiproliferative activity against human SiHa cells. The class given is functional, cell-based.

The text below walks through data of ChEMBL document CHEMBL6074649, “An insight into recent developments in imidazole based heterocyclic compounds as anticancer agents: Synthesis, SARs, and mechanism of actions” (Eur J Med Chem, 2024).

SMILES strings stand for the structures.

As for `COc1cc(C(=O)c2[nH]c(N)nc2-c2cccs2)cc(OC)c1OC`, the IC50 in data set [1] was determined as 121 nM; in [2], 1890 nM; in data set [3], 2430 nM; in data set [4], 112 nM; in data set [5], 1660 nM; in data set [6] it was 416 nM. Besides, the IC50 in [7] turned out to be 36 nM.
For `COc1ccc(-c2c[nH]c(=S)n2/N=C/c2ccccc2O)cc1`, the results for the IC50 in data set [8], in data set [9] and in data set [10] were 1070 nM, 3990 nM and 1300 nM, respectively. The compound further had an IC50 at 24 h in data set [11] of 27800 nM.
In the case of `CCOc1ccc(-c2nccn2-c2cc(OC)c(OC)c(OC)c2)cc1Cl`, the IC50 is 1.8 nM in data set [12]; 1.2 nM in data set [13]; 0.7 nM in [14]; 0.57 nM in data set [15]; 3.8 nM in data set [16]; 870 nM in data set [17]. Also, the IC50 came out at 0.4 nM in data set [18] and 0.9 nM in data set [19].
As for `Nc1nc(-c2ccccc2)cn1/N=C/c1cnc2ccccc2n1`, the Activity turned out to be 37.5% in [20]; 66.6% in data set [21]; 64.7% in data set [22]; 41.1% in data set [23]; 35.7% in [24]; 70% in data set [25]. The Activity in [26] is on record as 83.3%; in data set [27] it was 46.6%; in [28], 47.3%; in data set [29], 33.3%; in data set [30], 50%; in data set [31], 7.1%.
As for `CCOC(=O)c1nn(-c2ccc(Cl)cc2)/c(=N\NC2=NC(c3ccccc3)(c3ccccc3)C(=O)N2)s1`, in data set [32], the IC50 worked out at 720 nM.
`COc1cccc2c1C=C(c1ncc(-c3ccc(OCc4ccccc4)cc3)[nH]1)CO2`: the IC50 worked out at 370 nM in [33]; 370 nM in data set [34]; 370 nM in data set [35]; 4730 nM in data set [36]; 370 nM in data set [37]; 370 nM in data set [38]. The IC50 in data set [39], in [40] and in data set [41] was 370 nM each time.
In the case of `CN1CCN(c2ccc(-c3nc(-c4ccc(N5C(=O)c6cccc7c(N8CCN(C)CC8)ccc(c67)C5=O)cc4)[nH]c3-c3ccc(N4CCN(C)CC4)cc3)cc2)CC1`, the IC50 stood at 13300 nM in [42], 6500 nM in data set [43] and 5400 nM in [44].

The IC50 is the midpoint of a concentration-inhibition curve.
